Here are results for two compounds from patent US5650173A, “Preparation of biodegradable microparticles containing a biologically active agent” (Alkermes Controlled Therapeutics Inc. II, priority 1996, dated 1997).

One may read the solubility as the concentration that dissolves in the medium under given conditions.

A short description of series [1]: Solubility of risperidone in receiving medium for in vitro dissolution. The conditions noted are these: 50 mm tris buffer, pH 7.4, aqueous buffer.
Description: Real time and accelerated methodologies were used. The equipment consisted of a Hanson research 6-cell USP paddle (Method II) dissolution apparatus interfaced with a spectrophotometer and data station. Receiving media were continuously recirculated from each cell to flow cells inside the spectrophotometer. The absorbance of the receiving media was monitored at 236 nm for quantification of risperidone.
The real time model measured the release rates of microparticles into a receiving medium consisting of 50 mM tris buffer at pH 7.4 at 37° C. […] The amount of risperidone was kept below 20% of saturation to provide infinite sink conditions.
Series [2] in a line: In Vitro Dissolution of norethindrone (NET) microparticles. It counts as physicochemical. The conditions noted are these: ethyl acetate alone as solvent; b93: extreme ethyl acetate contents in quench; quench volume varied.

Entries after “also recorded” stand apart in the source; their conditions may differ.

In series [1], `Cc1nc2n(c(=O)c1CCN1CCC(c3noc4cc(F)ccc34)CC1)CCCC2` [Risperidone, risperidone] came in with a solubility of at least 500 µg/mL.
Turning to `C#C[C@]1(O)CC[C@H]2[C@@H]3CCC4=CC(=O)CC[C@@H]4[C@H]3CC[C@@]21C` [NET, norethindrone], in series [2], the “in vitro release rate from microparticles” value was “Higher than normal release rates; also recorded: quicker release; also recorded: varies slightly”.
